Literature values, collected in patent US20210128641A1, “COMPOSITIONS AND METHODS FOR TREATING SKIN AND MUCOUS MEMBRANE DISEASES” (The Regents of the University of California, priority 2014, published 2021).

What was measured:
Propionibacterium acnes = details: in vitro
keratinocytes = details: in vitro

| Substance | growth of Propionibacterium acnes on agar plates (Propionibacterium acnes) | death of keratinocytes caused by Staphylococcus aureus (keratinocytes) |
| --- | --- | --- |
| Lactobacillus acidophilus | inhibit growth |  |
| Lactobacillus plantarum | inhibit growth |  |
| Lactobacillus reuteri |  | reduced death |
